Measurements as given in US20060172941A1, “Anti-angiogenic peptides and methods of use thereof” (priority 2004, published 2006).
“Also recorded” adds a separate entry of the source. Where no end group is shown, it is not given here. [ ]: non-standard residue; d: D form.

Experiments:
[1] = Heparin binding activity, Hi Trap Heparin HP column, NaCl step elution; conditions: for [NaCl] for elution: heparin column; for fraction number: 500 μl fractions of heparin column elution
Description: Liquid chromatography was used to determine the relative levels of heparin binding activity of the individual heparin binding domains and of the anti-angiogenic miniproteins that contains them. In this assay, the strength of the heparin binding activity is proportional to the amount of NaCl that is required to elute the peptide bound to the heparin column. Peptides with low binding activity are eluted with lower NaCl concentration, whereas higher concentrations of NaCl are required for peptides with higher binding activity.
Hi Trap Heparin HP column (1 ml, Amersham Biosciences) was equilibrated with 10 column volumes (CV) of equilibration (EQ) buffer=10 mM NaH2PO4 pH 7. All buffers were loaded onto columns via syringes. 500 μl fractions are collected (flow rate=1 ml/minute). 500 μg of peptide (1 mg/ml, resuspended in EQ buffer) was added to each column and the flow through was collected for analysis. The columns were then washed with 3 CV of EQ buffer. Peptides are then eluted with a step gradient of 500, 625, 750, 875 mM NaCl in EQ buffer, 2 CV per each step. A final step of 3 CV of 1000 mM NaCl in EQ buffer was collected in 500 μl fractions. The A210 nm was measured using EQ and elution buffers as blanks.

[2] = test system: Human Umbilical Vein Endothelial Cells; test: bFGF-mediated survival/proliferation of human umbilical vein endothelial cells (WST1); format: cell-based; conditions: FIG. 6, 9, 10, 17
Protocol: The anti-angiogenic activities of the peptides were tested by measuring the level of inhibition of VEGF and bFGF mediated survival/proliferation of Bovine Retinal Endothelial Cells (BRE), Human Dermal Microvasculature Endothelial Cells, and Human Umbilical Vein Endothelial Cells, all of which are standard cell lines used to test anti-angiogenic compounds.
Human umbilical cord endothelial (HUVEC) cells were maintained in Cambrex EGM-2MV media. On day one, cells were starved overnight in 1% FBS in M200 media (Cascade Biologicals). The morning after, the media were replaced with serum-free media (control) or media containing 25 ng/ml of human VEGF165 and the various peptides to final concentrations as described.
In all cases, after 72 hours incubation, the amount of live cells in each well was measured with the WST1 assay (Roche).

B16-F1 melanoma cells = test: Subcutaneous B16 melanoma tumor growth in vivo; design: species or system mouse; conditions: 20 mg/kg daily IP; for Inhibition of tumor growth: vs untreated controls, FIG. 12 and 14
Protocol: Because of the importance of the angiogenic process for tumorigenesis, miniproteins as described herein, were hypothesized to show good anti-tumor activity. The peptides of the invention were tested in an in vivo model of anti-tumor activity. This model compares the growth of subcutaneous B16 melanoma tumor in vivo either untreated or treated with various amount of miniproteins described in this application. This model is widely accepted in the art as a model to test the anti-tumor activity of compounds that inhibit tumor growth because they have anti-angiogenic activity.
Male C57BL/6 mice were obtained with a mean body weight of 20±2 g. Mouse B16-F1 melanoma cells were implanted subcutaneously (5×10^5 cell per animal). Peptides (formulated in water) were administered ip daily at the amount indicated starting the day after cells injection. In general, tumors became palpable around 9 days after injection of cells. Tumor were then measured every 2 days.

[3] = step gradient in 10 mM NaH2PO4 pH 7

Row | Sequence | [NaCl] for elution [1, 3] | fraction number [1] | other results
1 | RAAKKRARAAKKRARAAKKRLGYVVSDGRGDYP (listed as Homo sapiens) [ST100,079] | 1000 mM |  | 
2 | RRGRAARRGRAARRGRAAKKKPSQSSHPPLSTA (listed as Homo sapiens) [ST100,073] | 1000 mM | 26-27 | Inhibition of bFGF-mediated survival [2]: more potent in blocking bFGF stimulation; also recorded: the most active in inhibiting bFGF stimulation; Inhibition of tumor growth (B16-F1 melanoma cells): able to inhibit tumor growth
3 | RRGRAAKKKRRGRAAKKKPSQSSHPPLSTA (listed as Homo sapiens) [ST100,072] | 1000 mM | 26-27 | Inhibition of bFGF-mediated survival [2]: more potent in blocking bFGF stimulation
4 | ATSLPPHSSQSPGGGPPAARGRRAARGRR (listed as Homo sapiens) [ST100,062] |  |  | P (ANOVA) of tumor growth inhibition (B16-F1 melanoma cells; FIG. 12): > 0.05; Inhibition of tumor growth (B16-F1 melanoma cells): clearly inhibit tumor growth
5 | RKKAARARKKAARARKKAARRLGYVVSDGRGDYP (listed as Homo sapiens) [ST100,081] | 1000 mM | 26-27 | 
6 | RRGRRRGRRRGRRRGKK (listed as Homo sapiens) [ST100,089] |  | 34-35 | heparin binding activity (comparison in words) [1]: even greater increase in heparin binding; [NaCl] for elution ([1]; unit given as M): 1300 mM
7 | RKGRRKGRRKGRRKGRRKGKK ([dR][dK]G[dR][dR][dK]G[dR][dR][dK]G[dR][dR][dK]G[dR][dR][dK]G[dK][dK]; listed as Homo sapiens) [ST100,087] | 1500 mM | 35-36 | heparin binding activity (comparison in words) [1]: even greater increase in heparin binding
8 | RRGRARRGRARRGRARRGKK ([dR][dR]G[dR][dA][dR][dR]G[dR][dA][dR][dR]G[dR][dA][dR][dR]G[dK][dK]; listed as Homo sapiens) [ST100,085] | 1100 mM | 31-32 | 
9 | RKRAARARKRAARARKRAARR (listed as Homo sapiens) [ST100,083] | 1100 mM |  | 
10 | RRGRRRGRRRGRRRGKKPSQSSHPPLSTA ([dR][dR]G[dR][dR][dR]G[dR][dR][dR]G[dR][dR][dR]G[dK][dK][dP][dS][dQ][dS][dS][dH][dP][dP][dL][dS][dT][dA]; listed as Homo sapiens) [ST100,093] |  |  | Inhibition of bFGF-mediated survival [2]: more potent than similar peptides with weaker heparin binding domains
11 | RRQRRRGRRRQRRRGKK (listed as Homo sapiens) [ST100,090] | 1300 mM | 33-34 | heparin binding activity (comparison in words) [1]: even greater increase in heparin binding
12 | RRGRAAKKKRRGRAAKKK (listed as Homo sapiens) [ST100,082] | 1000 mM | 26-27 | 
